Holding throughout (assay type): functional, organism-based
In one assay the test system is Human alphaherpesvirus 1. In words: Antiviral activity against HSV1 assessed as inhibition of virus-induced cytopathicity. (In general: Damage to the host cells serves as the signal in cytopathic effect assays.)
The subject of the next assay is Human alphaherpesvirus 2. As to the kind of experiment: Antiviral activity against HSV2 assessed as inhibition of virus-induced cytopathicity.
Assay [1] deals with Encephalomyocarditis virus. As to the kind of experiment: Antiviral activity against EMCV assessed as inhibition of virus-induced cytopathicity. The conditions noted are these: Cardiovirus A.
The next assay has as its system Coxsackievirus B3. As to the kind of experiment: Antiviral activity against Coxsackievirus B3 assessed as inhibition of virus-induced cytopathicity. As to conditions: Enterovirus B.
In assay [2] the test system is Vesicular stomatitis virus. As to the kind of experiment: Antiviral activity against VSV assessed as inhibition of virus-induced cytopathicity.
The test system of assay [3] is Human immunodeficiency virus. As to the kind of experiment: Antiviral activity against HIV assessed as inhibition of virus-induced cytopathicity.
The test system of assay [4] is Influenza A virus. As to the kind of experiment: Antiviral activity against influenza A virus Taiwan assessed as inhibition of virus-induced cytopathicity.
The test system of another assay is Coronaviridae. As to the kind of experiment: Antiviral activity against Coronavirus assessed as inhibition of virus-induced cytopathicity.
Assay [5] has as its system Influenza A virus. In words: Antiviral activity against influenza A virus Seoul assessed as inhibition of virus-induced cytopathicity.
For assay [6], the system named is Influenza A virus. In words: Antiviral activity against influenza A virus Panama assessed as inhibition of virus-induced cytopathicity.

≈ marks a conversion by molar mass, not a printed value. Calls of active or inactive are those of the source. No cut-off for these calls is given here. A value given as a limit tells only on which side of the number the result lay.

Broadly, the EC50 is the concentration needed to bring the measured effect to its halfway point. With `Nc1nc2c(ncn2COCCO)c(=O)[nH]1` [ACYCLOVIR], the EC50 in the assay with Human alphaherpesvirus 1 was determined as 0.18 µg/mL (≈ 0.799 µM); in the assay on Human alphaherpesvirus 2, 0.36 µg/mL (≈ 1.6 µM).
Take `CC(=O)OC[C@H]1O[C@@H](n2cc(-c3cc(-c4ccc(C(C)C)cc4)no3)c(=O)[nH]c2=O)C[C@@H]1OC(C)=O`: the concentration for a half-maximal effect (EC50) with Human alphaherpesvirus 1 is 0.08 µg/mL (≈ 0.161 µM); with Human alphaherpesvirus 2, 0.07 µg/mL (≈ 0.141 µM); in assay [1], 0.01 µg/mL (≈ 0.0201 µM); with Coxsackievirus B3, 0.01 µg/mL (≈ 0.0201 µM); in assay [2], 0.03 µg/mL (≈ 0.0603 µM). Also, the outcome (in assay [3]; with Influenza A virus [4]; with Coronaviridae; with Influenza A virus [5]; with Influenza A virus [6]) was inactive.
`NC(=O)c1ncn([C@@H]2O[C@H](CO)[C@@H](O)[C@H]2O)n1` [RIBAVIRIN]: the EC50 in assay [1] came out at 0.02 µg/mL (≈ 0.0819 µM).
On to `CC(=O)OC[C@H]1O[C@@H](n2cc(-c3cc(-c4ccc(C(C)(C)C)cc4)no3)c(=O)[nH]c2=O)C[C@@H]1OC(C)=O`, for which the concentration for a half-maximal effect (EC50) is more than 0.06 µg/mL with Human alphaherpesvirus 1; 0.03 µg/mL (≈ 0.0586 µM) with Human alphaherpesvirus 2; 0.01 µg/mL (≈ 0.0195 µM) in [1]; 0.01 µg/mL (≈ 0.0195 µM) in the assay with Coxsackievirus B3; 0.03 µg/mL (≈ 0.0586 µM) in assay [2]. Also, the result (in assay [3]; with Influenza A virus [4]; in the assay with Coronaviridae; in the assay on Influenza A virus [5]; in the assay on Influenza A virus [6]) was inactive.
Consider `Nc1ccn([C@@H]2O[C@H](CO)[C@@H](O)[C@@H]2O)c(=O)n1` [CYTARABINE], for which the figures for the EC50 in the assay on Human alphaherpesvirus 1 and with Human alphaherpesvirus 2 were 0.2 µg/mL (≈ 0.822 µM) and 0.52 µg/mL (≈ 2.14 µM), respectively.
Consider `CC(C)c1ccc(-c2cc(-c3cn([C@H]4C[C@H](O)[C@@H](CO)O4)c(=O)[nH]c3=O)on2)cc1`, for which the EC50 was 0.09 µg/mL (≈ 0.218 µM) with Human alphaherpesvirus 1; 0.09 µg/mL (≈ 0.218 µM) with Human alphaherpesvirus 2; 0.02 µg/mL (≈ 0.0484 µM) in [1]; 0.03 µg/mL (≈ 0.0726 µM) with Coxsackievirus B3; more than 0.07 µg/mL in [2]. Besides, the result (in assay [3]; in the assay on Influenza A virus [4]; in the assay on Coronaviridae; in the assay with Influenza A virus [5]; with Influenza A virus [6]) was inactive.

The values above are taken from ChEMBL document CHEMBL1136856, “Synthesis of 5-isoxazol-5-yl-2'-deoxyuridines exhibiting antiviral activity against HSV and several RNA viruses” (Bioorg Med Chem Lett, 2009).
